One test has as its system 4 PI3K isoforms (Human recombinant GST-PI3K). In words: PI3K scintillation proximity assay, best IC50 obtained with the four isoforms (alpha, beta, delta, gamma). The class given is biochemical. Conditions: best IC50 obtained with the four isoforms of PI3K; read-out: Best potency measured on the 4 PI3K isoforms.
Take `O=C(c1nn(-c2ccccc2)c2c1CS(=O)(=O)c1ccccc1-2)N1CCOC(CO)C1` (stereo not drawn) [Example 333, {4-[(5,5-Dioxido-1-phenyl-1,4-dihydrothiochromeno[4,3-c]pyrazol-3-yl)carbonyl]morpholin-2-yl}methanol]: the IC50 was determined as 6530 nM.
Consider `O=C(c1nn(-c2ccccc2)c2c1CS(=O)(=O)c1ccccc1-2)N1CCCOCC1` [Example 334, 3-(1,4-Oxazepan-4-ylcarbonyl)-1-phenyl-1,4-dihydrothiochromeno[4,3-c]pyrazole 5,5-dioxide], for which the IC50 was 9070 nM.
Still for that read-out and setting: for `CC1COCCN1C(=O)c1nn(-c2ccccc2)c2c1CS(=O)(=O)c1ccccc1-2` (stereo not drawn) [Example 338, 3-[(3-Methylmorpholin-4-yl)carbonyl]-1-phenyl-1,4-dihydrothiochromeno[4,3-c]pyrazole 5,5-dioxide] the value was 13900 nM; for `O=C(c1nn(-c2cccc(OCCn3cccn3)c2)c2c1CS(=O)(=O)c1ccccc1-2)N1CCOCC1` [Example 340, 3-(Morpholin-4-ylcarbonyl)-1-{3-[2-(1H-pyrazol-1-yl)ethoxy]phenyl}-1,4-dihydrothiochromeno[4,3-c]pyrazole 5,5-dioxide], 445 nM.
The same measure, in the same setting: with `COCCOc1cccc(-n2nc(C(=O)N3CCOCC3)c3c2-c2ccccc2S(=O)(=O)C3)c1` [Example 341, 1-[3-(2-Methoxyethoxy)phenyl]-3-(morpholin-4-ylcarbonyl)-1,4-dihydrothiochromeno[4,3-c]pyrazole 5,5-dioxide] the figure was 726 nM.
Take `O=C(c1nn(C2CCOC2)c2c1CS(=O)(=O)c1ccccc1-2)N1CCOCC1` (stereo not drawn) [Example 342, 3-(Morpholin-4-ylcarbonyl)-1-(tetrahydrofuran-3-yl)-1,4-dihydrothiochromeno[4,3-c]pyrazole 5,5-dioxide]: the IC50 came out at 890 nM.
As for `CC1COCCN1Cc1ccc(-n2nc(C(=O)N3CCOCC3)c3c2-c2ccccc2S(=O)(=O)C3)cc1` (stereo not drawn) [Example 357, 1-{4-[(3-Methylmorpholin-4-yl)methyl]phenyl}-3-(morpholin-4-ylcarbonyl)-1,4-dihydrothiochromeno[4,3-c]pyrazole 5,5-dioxide], the IC50 stood at 180 nM.
The same measure, in the same setting: for `O=C(c1nn(-c2cccc(OCCn3ccnc3)c2)c2c1CS(=O)(=O)c1ccccc1-2)N1CCOCC1` [Example 360, 1-{3-[2-(1H-Imidazol-1-yl)ethoxy]phenyl}-3-(morpholin-4-ylcarbonyl)-1,4-dihydrothiochromeno[4,3-c]pyrazole 5,5-dioxide] the value was 179 nM; for `O=C(c1nn(C2CCOC2)c2c1CS(=O)(=O)c1c(F)cccc1-2)N1CCOCC1` (stereo not drawn) [Example 365, 6-Fluoro-3-(morpholin-4-ylcarbonyl)-1-(tetrahydrofuran-3-yl)-1,4-dihydrothiochromeno[4,3-c]pyrazole 5,5-dioxide], 353 nM.
Turning to `O=C(c1nn([C@@H]2CCCN(CCN3CCOCC3)C2)c2c1CS(=O)(=O)c1c(Cl)cccc1-2)N1CCOCC1` [Example 387], the IC50 was 5230 nM.
`O=C(c1nn(-c2ccc(CN3CCOCC3)cc2)c2c1CS(=O)(=O)c1ccc(F)cc1-2)N1CCOCC1` [Example 392, 8-Fluoro-3-(morpholin-4-ylcarbonyl)-1-[4-(morpholin-4-ylmethyl)phenyl]-1,4-dihydrothiochromeno[4,3-c]pyrazole 5,5-dioxide]: the IC50 was 555 nM.
For the molecule `O=C(c1nn(C2CN3CCC2CC3)c2c1CS(=O)(=O)c1ccccc1-2)N1CCOCC1` (stereo not drawn) [Example 393], the IC50 stood at 10200 nM.
Consider `O=C(c1ccoc1)N1CCC[C@H](n2nc(C(=O)N3CCOCC3)c3c2-c2ccccc2S(=O)(=O)C3)C1` [Example 396], for which the IC50 was 750 nM.
Same read-out and setting: with `O=C(c1nn([C@H]2CCCN(C(=O)C3CCOCC3)C2)c2c1CS(=O)(=O)c1ccccc1-2)N1CCOCC1` [Example 397] the figure was 1500 nM.
Turning to `O=C(CC1CCOCC1)N1CCC[C@H](n2nc(C(=O)N3CCOCC3)c3c2-c2ccccc2S(=O)(=O)C3)C1` [Example 398], the IC50 stood at 345 nM.
Take `O=C(CC1CCCCC1)N1CCC[C@H](n2nc(C(=O)N3CCOCC3)c3c2-c2ccccc2S(=O)(=O)C3)C1` [Example 399]: the IC50 is 735 nM.
Take `O=C(c1nn(C2CCCN(CC3CCOC3)C2)c2c1CS(=O)(=O)c1c(F)cccc1-2)N1CCOCC1` (stereo not drawn) [Example 404, 6-Fluoro-3-(morpholin-4-ylcarbonyl)-1-[1-(tetrahydrofuran-3-ylmethyl)piperidin-3-yl]-1,4-dihydrothiochromeno[4,3-c]pyrazole 5,5-dioxide]: the IC50 was 21 nM.
For the molecule `O=C(c1nn(C2CN(CCC3CCOCC3)C2)c2c1CS(=O)(=O)c1ccccc1-2)N1CCOCC1` [Example 405, 3-(Morpholin-4-ylcarbonyl)-1-{1-[2-(tetrahydro-2H-pyran-4-yl)ethyl]azetidin-3-yl}-1,4-dihydrothiochromeno[4,3-c]pyrazole 5,5-dioxide], the IC50 was 95 nM.
For `O=C(c1nn(C2CCCN(CCn3cccn3)C2)c2c1CS(=O)(=O)c1c(F)cccc1-2)N1CCOCC1` (stereo not drawn) [Example 406, 6-Fluoro-3-(morpholin-4-ylcarbonyl)-1-{1-[2-(1H-pyrazol-1-yl)ethyl]piperidin-3-yl}-1,4-dihydrothiochromeno[4,3-c]pyrazole 5,5-dioxide], the IC50 worked out at 80 nM.
Turning to `O=C(c1nn(C2CN(CCN3CCOCC3)C2)c2c1CS(=O)(=O)c1ccccc1-2)N1CCOCC1` [Example 407, 3-(Morpholin-4-ylcarbonyl)-1-[1-(2-morpholin-4-ylethyl)azetidin-3-yl]-1,4-dihydrothiochromeno[4,3-c]pyrazole 5,5-dioxide], the IC50 was 236 nM.
The same measure, in the same setting: for `O=C(c1nn(C2CCCN(CCC3CCOCC3)C2)c2c1CS(=O)(=O)c1ncccc1-2)N1CCOCC1` (stereo not drawn) [Example 408] the value was 61 nM; for `O=C(c1nn(C2CCCN(CCN3CCOCC3)C2)c2c1CS(=O)(=O)c1c(F)cccc1-2)N1CCOCC1` (stereo not drawn) [Example 413, 6-fluoro-3-(morpholin-4-ylcarbonyl)-1-[1-(2-morpholin-4-ylethyl)piperidin-3-yl]-1,4-dihydrothiochromeno[4,3-c]pyrazole 5,5-dioxide], 16 nM; for `O=C(c1nn(C2CCCN(CCN3CC(F)(F)C3)C2)c2c1CS(=O)(=O)c1c(F)cccc1-2)N1CCOCC1` (stereo not drawn) [Example 414, 1-{1-[2-(3,3-Difluoroazetidin-1-yl)ethyl]piperidin-3-yl}-6-fluoro-3-(morpholin-4-ylcarbonyl)-1,4-dihydrothiochromeno[4,3-c]pyrazole 5,5-dioxide], 38 nM.

Still in this test, the particulars now being: inhibition at 20 μM.
Turning to `O=C(c1nn(-c2ccccc2)c2c1C[S+]([O-])c1ccccc1-2)N1CCOCC1` (stereo not drawn) [Example 330, 3-(Morpholin-4-ylcarbonyl)-1-phenyl-1,4-dihydrothiochromeno[4,3-c]pyrazole 5-oxide], the “Best potency measured on the 4 PI3K isoforms, % inh @20 μM” value (“Best potency measured … % inh @20 μM” below) came to 18% inh @20 μM.
Take `CC(C)CC1COCCN1C(=O)c1nn(-c2ccccc2)c2c1CS(=O)(=O)c1ccccc1-2` (stereo not drawn) [Example 332]: the “Best potency measured … % inh @20 μM” value was found to be 15% inh @20 μM.
On to `O=C(c1nn(-c2ccccc2)c2c1CS(=O)(=O)c1ccccc1-2)N1CCOc2ccccc21` [Example 335], for which the “Best potency measured … % inh @20 μM” value was 13% inh @20 μM.
In the case of `CC1CN(C(=O)c2nn(-c3ccccc3)c3c2CS(=O)(=O)c2ccccc2-3)CC(C)O1` (stereo not drawn) [Example 337], the “Best potency measured … % inh @20 μM” value was determined as 11% inh @20 μM.

Source of the values: patent US9073940B2, “Tricyclic pyrazol amine derivatives” (MERCK SERONO SA, priority 2009, dated 2015).
